Reference: paper PMC4673936, “Design, Synthesis and Biological Evaluation of New 1, 4-Dihydropyridine (DHP) Derivatives as Selective Cyclooxygenase-2 Inhibitors” (Iranian Journal of Pharmaceutical Research : IJPR, 2015)

Legend:
COX-1 = target: T1, COX-1 (Ovis aries, UniProt P05979); assay: biochemical; conditions: ovine COX-1/COX-2 assay kit; mean of two determinations, deviation < 10% of mean
T1 construct: purchased Cayman chemical, MI, USA
T1 sequence (P05979 25-600): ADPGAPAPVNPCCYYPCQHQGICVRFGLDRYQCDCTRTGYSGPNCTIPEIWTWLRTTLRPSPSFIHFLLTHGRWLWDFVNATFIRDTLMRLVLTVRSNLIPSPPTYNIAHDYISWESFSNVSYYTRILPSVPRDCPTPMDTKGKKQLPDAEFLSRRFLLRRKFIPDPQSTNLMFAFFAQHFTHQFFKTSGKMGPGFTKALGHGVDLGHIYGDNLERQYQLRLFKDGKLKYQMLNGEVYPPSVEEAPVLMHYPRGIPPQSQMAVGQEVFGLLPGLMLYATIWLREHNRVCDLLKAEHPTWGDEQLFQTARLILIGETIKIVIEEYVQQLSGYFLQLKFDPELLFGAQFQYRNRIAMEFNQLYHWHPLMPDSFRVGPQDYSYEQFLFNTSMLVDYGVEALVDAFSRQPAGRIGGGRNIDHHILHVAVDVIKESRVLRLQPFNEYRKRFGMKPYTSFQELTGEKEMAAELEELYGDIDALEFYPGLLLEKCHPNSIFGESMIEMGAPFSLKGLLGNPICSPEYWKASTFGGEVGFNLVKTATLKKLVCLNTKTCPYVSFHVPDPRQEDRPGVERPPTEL
Experimental: (§1) A group of 1,4-dihydropyridine derivativespossessing a MeSO2 at the para-position of the C-4 phenyl ring, alkyl groups(R1) at the C-2 position and alkyloxycarbonyl groups(COOR2) at the C-3 position were prepared and evaluated for their ability to inhibit COX-1 and COX-2 using chemiluminescent kit (Cayman chemical, MI, USA) according to our previously reported method ([14]).

COX-2 = target: T2, COX-2 (Ovis aries, UniProt P79208); assay: biochemical; assay type: biochemical; conditions: for COX-2 S.I. (in-vitro COX-2 selectivity index): COX-1 IC50/COX-2 IC50; for IC50: ovine COX-1/COX-2 assay kit, mean of two determinations, deviation < 10% of mean; for COX-2 inhibitory activity relative to compound 5e (in words): larger groups (propyl, phenyl) at C-2 position of compound 5e
T2 construct: purchased Cayman chemical, MI, USA
T2 sequence (P79208 17-603): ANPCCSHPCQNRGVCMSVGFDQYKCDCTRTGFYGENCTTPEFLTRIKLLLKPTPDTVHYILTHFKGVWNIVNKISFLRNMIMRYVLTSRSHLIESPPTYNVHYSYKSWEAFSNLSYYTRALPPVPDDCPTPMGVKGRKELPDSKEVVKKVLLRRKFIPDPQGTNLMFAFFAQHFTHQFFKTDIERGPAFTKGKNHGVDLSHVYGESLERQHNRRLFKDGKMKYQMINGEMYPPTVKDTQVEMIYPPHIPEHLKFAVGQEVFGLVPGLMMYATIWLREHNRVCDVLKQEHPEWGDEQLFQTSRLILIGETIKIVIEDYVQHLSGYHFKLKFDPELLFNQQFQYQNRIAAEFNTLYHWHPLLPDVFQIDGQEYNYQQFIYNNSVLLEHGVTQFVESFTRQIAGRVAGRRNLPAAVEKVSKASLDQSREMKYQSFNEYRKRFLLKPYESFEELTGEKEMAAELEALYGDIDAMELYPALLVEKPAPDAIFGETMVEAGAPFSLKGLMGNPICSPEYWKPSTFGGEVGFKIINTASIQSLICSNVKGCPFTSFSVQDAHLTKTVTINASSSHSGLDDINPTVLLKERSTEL
Experimental: as §1

SMILES | IC50 (COX-1) [µM] | COX-2 S.I. (in-vitro COX-2 selectivity index) (COX-2) | IC50 (COX-2) [µM] | melting point [°C] | COX-2 inhibitory activity relative to compound 5e (in words) (COX-2)
CC1=C(C(=O)OCc2ccccc2)C(c2ccc(S(C)(=O)=O)cc2)C2=C(CC(C)(C)CC2=O)N1 (stereo not drawn) [Compound 5i] | 22.9 |  | > 100 | 136.9 to 138.9 | 
CCOC(=O)C1=C(c2ccccc2)NC2=C(C(=O)CC(C)(C)C2)C1c1ccc(S(C)(=O)=O)cc1 (stereo not drawn) [Compound 5g, Ethyl-1,4,5,6,7,8-hexahydro-7,7-dimethyl-4-(4-(methylsulfonyl)phenyl)-5-oxo-2-phenylquinoline-3-carboxylate] | 46.1 |  | > 100 | 187.9 to 189 | significant loss of activities
CC1=C(C(=O)OC(C)(C)C)C(c2ccc(S(C)(=O)=O)cc2)C2=C(CC(C)(C)CC2=O)N1 (stereo not drawn) [Compound 5h, t-Butyl-1,4,5,6,7,8-hexahydro-2,7,7-trimethyl-4-(4-methanesulfonyl-phenyl)-5-oxo-quinoline-3-carboxylate] | 25.5 | 63.7 | 0.4 | 163 to 164 | 
COC(=O)C1=C(N)NC2=C(C(=O)CC(C)(C)C2)C1c1ccc(S(C)(=O)=O)cc1 (stereo not drawn) [Compound 5b, Methyl-2-amino-1,4,5,6,7,8-hexahydro-7,7-dimethyl-4-(4-(methylsulfonyl)phenyl)-5-oxo quinolone-3-carboxylate] | 31 | 70.4 | 0.44 |  | 

Results, then the molecule that gave them:

IC50 (COX-1) [µM] | COX-2 S.I. (in-vitro COX-2 selectivity index) (COX-2) | IC50 (COX-2) [µM] | melting point [°C] | COX-2 inhibitory activity relative to compound 5e (in words) (COX-2) | SMILES
30.2 | 62.9 | 0.48 | 244 to 245 |  | COC(=O)C1=C(C)NC2=C(C(=O)CC(C)(C)C2)C1c1ccc(S(C)(=O)=O)cc1 (stereo not drawn) [Compound 5a, Methyl-1,4,5,6,7,8-hexahydro-2,7,7-trimethyl-4-(4-(methylsulfonyl)phenyl)-5-oxoquinoline-3-carboxylate]
27.6 |  | 0.62 |  |  | COC(=O)C1=C(C(C)C)NC2=C(C(=O)CC(C)(C)C2)C1c1ccc(S(C)(=O)=O)cc1 (stereo not drawn) [Compound 5d]
25.2 | 18.2 | 1.38 | 163 to 164 | significant loss of activities | CCCC1=C(C(=O)OCC)C(c2ccc(S(C)(=O)=O)cc2)C2=C(CC(C)(C)CC2=O)N1 (stereo not drawn) [Compound 5f, Ethyl-1,4,5,6,7,8-hexahydro-7,7-dimethyl-4-(4-(methylsulfonyl)phenyl)-5-oxo-2-propylquinoline-3-carboxylate]
27.6 | 92.0 | 0.3 | 180.7 to 182.3 |  | CCOC(=O)C1=C(C)NC2=C(C(=O)CC(C)(C)C2)C1c1ccc(S(C)(=O)=O)cc1 (stereo not drawn) [Compound 5e, Ethyl-1,4,5,6,7,8-hexahydro-2,7,7-trimethyl-4-(4-(methylsulfonyl)phenyl)-5-oxoquinoline-3-carboxylate]
30.7 | 52.1 | 0.59 | 186.5 to 188 |  | CCC1=C(C(=O)OC)C(c2ccc(S(C)(=O)=O)cc2)C2=C(CC(C)(C)CC2=O)N1 (stereo not drawn) [Compound 5c, Methyl-2-ethyl-1,4,5,6,7,8-hexahydro-7,7-dimethyl-4-(4-(methylsulfonyl)phenyl)-5-oxoquinoline-3-carboxylate]
